# Measurements published in patent US20190343908A1, “Therapeutic Combination for the Treatment of Cancer” (Nerium Biotechnology Inc., priority 2011, published 2019).
# Assays:
# [1] = system: PANC-1 pancreatic cancer cell line; test: Sulforhodamine B viability assay, PANC-1; assay type: cell-based, human; parameters: key to Average SRB: absorbance (optical density) at 570 nm, second wavelength subtracted; conditions: for ABSORBANCE: 0.1 μg/mL cisplatin; for SRB 24 h / SRB 48 h / SRB 72 h: Run 1 average
# Excerpt: (§1) Three different viability assays were chosen to complement each other and yielded results dependent on concentration and cell line: the Methyl Tetrazolium dye assay, the Sulforhodamine B fluorescent dye assay, and the Crystal Violet dye assay.
# The Sulforhodamine B and Crystal Violet assays provide information about protein and were used to complement the Methyl-Tetrazolium dye assay. […] It is used for the quantification of cellular proteins of cultured cells. The assay using Crystal Violet, a dye that binds electrostatically to proteins and stains DNA, provides a reliable, simple assay for measuring viability of cells. […]
# (§2) Cells were detached by trypsinization (Trypsin-0.25% EDTA, Invitrogen, 25200-072) during the logarithmic phase of culture growth and plated in 96-well plates (18.000 cells/well) (Corning, Costar 359) in a final volume of 200 μl of medium per well. […] The absorbance was measured after 24 hours, 48 hours, and 72 hours of incubation.
# For the Sulforhodamine B assay, 96-well plates were fixed by 10% trichloroacetic acid (Fluka, 91228) and were incubated at 4° C. for 1 hour. Afterwards, plates were rinsed with water and cells were stained with 0.4% Sulforhodamine B (Sigma, 341738), dissolved in 1% acetic acid (Carlo Ebra, 401422) for 15 minutes at room temperature (RT). The unbound stain was washed twice with 1% acetic acid. Finally, 10 mM Tris Buffer pH 10.5 (Sigma, T6791) was added to dissolve the dye.
# (§3) The optical density of each plate was measured on a μQuant spectrophotometer and the data were analyzed with Gen5 software (μQuant Biomolecular Spectrophotometer MQX200 and Gen5™ Microplate Data Collection & Analysis software, BioTek® Instruments. Inc, April 2008). Absorbance was measured at 570 nm for all assays and a second wavelength was measured in order to subtract noise. For the Methyl-Tetrazolium assay this second wavelength was 630 nm and for the Sulforhodamine B and Crystal Violet assays it was 690 nm.
# [2] = system: COLO699N lung cancer cell line; test: Crystal Violet viability assay, COLO699N; assay type: cell-based, human; parameters: key to CVE Average: absorbance at 570 nm (crystal violet), background wavelength subtracted; conditions: for Average CVE 24 h / Average CVE 48 h / Average CVE 72 h: COLO699N Run 1; for ABSORBANCE: COLO699N, 0.1 μg/mL cisplatin
# Excerpt: as §1
# The Sulforhodamine B and Crystal Violet assays provide information about protein and were used to complement the Methyl-Tetrazolium dye assay. […] It is used for the quantification of cellular proteins of cultured cells. The assay using Crystal Violet, a dye that binds electrostatically to proteins and stains DNA, provides a reliable, simple assay for measuring viability of cells.
# The Methyl Tetrazolium, Sulforhodamine B, and Crystal Violet assays were used to assess cell viabilities. The incubation times were 24 hours, 48 hours, and 72 hours. The Nerium oleander extract Anvirzel™ (a hot water extract of oleander obtained from Salud Integral, Honduras) was tested in concentrations ranging from 0.01 ng/mL to 10 ng/mL.
# as §2
# For the Crystal Violet assay, the medium was removed from the 96-well plates, the plates rinsed with PBS (Sigma, P3813) and then the cells were […] by the addition of 10% formalin (MERCK, 1.04003.2500) for 20 minutes at RT. Formalin was removed and 0.25% aqueous crystal violet (Sigma, HT901), dissolved in water, was added for 10 minutes at RT. Unbound Crystal Violet was rinsed by washing with water and finally 33% acetic acid was added to dissolve the dye.
# as §3
structure (smiles),measurement,setting,value
N.N.[Cl][Pt][Cl] [cisplatin],ABSORBANCE,"[1]; PANC-1, 48 h",1.861
same,ABSORBANCE,"[1]; PANC-1, 72 h",2.536
same,Average SRB,"[1]; PANC-1, Run 2, 24 h, 0.1 μg/ml CDDP",1.924
same,Average SRB,"[1]; PANC-1, Run 2, 24 h, 1 μg/ml CDDP",2.391
same,Average SRB,"[1]; PANC-1, Run 2, 24 h, 10 μg/ml CDDP",2.075
same,Average SRB,"[1]; PANC-1, Run 2, 24 h, 100 μg/ml CDDP",1.821
same,Average SRB,"[1]; PANC-1, Run 2, 48 h, 0.1 μg/ml CDDP",1.505
same,Average SRB,"[1]; PANC-1, Run 2, 48 h, 1 μg/ml CDDP",1.549
same,Average SRB,"[1]; PANC-1, Run 2, 48 h, 10 μg/ml CDDP",1.106
same,Average SRB,"[1]; PANC-1, Run 2, 48 h, 100 μg/ml CDDP",0.752
same,Average SRB,"[1]; PANC-1, Run 2, 72 h, 0.1 μg/ml CDDP",2.471
same,Average SRB,"[1]; PANC-1, Run 2, 72 h, 1 μg/ml CDDP",2.171
same,Average SRB,"[1]; PANC-1, Run 2, 72 h, 10 μg/ml CDDP",1.815
same,Average SRB,"[1]; PANC-1, Run 2, 72 h, 100 μg/ml CDDP",1.374
same,Average SRB,"[1]; PANC-1, Run 3, 24 h, 0.1 μg/ml CDDP",1.881
same,Average SRB,"[1]; PANC-1, Run 3, 24 h, 1 μg/ml CDDP",2.008
same,Average SRB,"[1]; PANC-1, Run 3, 24 h, 10 μg/ml CDDP",1.74
same,Average SRB,"[1]; PANC-1, Run 3, 24 h, 100 μg/ml CDDP",2.087
same,Average SRB,"[1]; PANC-1, Run 3, 48 h, 0.1 μg/ml CDDP",1.861
same,Average SRB,"[1]; PANC-1, Run 3, 48 h, 1 μg/ml CDDP",1.165
same,Average SRB,"[1]; PANC-1, Run 3, 48 h, 10 μg/ml CDDP",0.954
same,Average SRB,"[1]; PANC-1, Run 3, 48 h, 100 μg/ml CDDP",0.858
same,Average SRB,"[1]; PANC-1, Run 3, 72 h, 0.1 μg/ml CDDP",2.536
same,Average SRB,"[1]; PANC-1, Run 3, 72 h, 1 μg/ml CDDP",2.281
same,Average SRB,"[1]; PANC-1, Run 3, 72 h, 10 μg/ml CDDP",2.07
same,Average SRB,"[1]; PANC-1, Run 3, 72 h, 100 μg/ml CDDP",1.584
same,SRB 24 h,[1]; 0.1 μg/ml CDDP,1.369
same,SRB 48 h,[1]; 0.1 μg/ml CDDP,2.223
same,SRB 72 h,[1]; 0.1 μg/ml CDDP,2.191
same,SRB 24 h,[1]; 1 μg/ml CDDP,1.748
same,SRB 48 h,[1]; 1 μg/ml CDDP,1.748
same,SRB 72 h,[1]; 1 μg/ml CDDP,1.47
same,SRB 24 h,[1]; 10 μg/ml CDDP,1.597
same,SRB 48 h,[1]; 10 μg/ml CDDP,1.339
same,SRB 72 h,[1]; 10 μg/ml CDDP,1.435
same,SRB 24 h,[1]; 100 μg/ml CDDP,1.993
same,SRB 48 h,[1]; 100 μg/ml CDDP,1.53
same,SRB 72 h,[1]; 100 μg/ml CDDP,1.433
same,Average CVE 24 h,[2]; 0.1 μg/ml CDDP,0.303
same,Average CVE 48 h,"[2]; 0.1 μg/ml CDDP, 48 h",0.393
same,Average CVE 72 h,"[2]; 0.1 μg/ml CDDP, 72 h",0.418
same,Average CVE 24 h,[2]; 1 μg/ml CDDP,0.222
same,Average CVE 48 h,"[2]; 1 μg/ml CDDP, 48 h",0.136
same,Average CVE 72 h,"[2]; 1 μg/ml CDDP, 72 h",0.313
same,Average CVE 24 h,[2]; 10 μg/ml CDDP,0.313
same,Average CVE 48 h,"[2]; 10 μg/ml CDDP, 48 h",0.47
same,Average CVE 72 h,"[2]; 10 μg/ml CDDP, 72 h",0.256
same,Average CVE 24 h,[2]; 100 μg/ml CDDP,0.223
same,Average CVE 48 h,"[2]; 100 μg/ml CDDP, 48 h",0.189
same,Average CVE 72 h,"[2]; 100 μg/ml CDDP, 72 h",0.172
same,ABSORBANCE,[2]; 48 h,0.801
same,ABSORBANCE,[2]; 72 h,1
same,CVE Average,"[2]; Run 2, 24 h, 0.1 μg/ml CDDP",0.551
same,CVE Average,"[2]; Run 2, 24 h, 1 μg/ml CDDP",0.232
same,CVE Average,"[2]; Run 2, 24 h, 10 μg/ml CDDP",0.504
same,CVE Average,"[2]; Run 2, 24 h, 100 μg/ml CDDP",0.266
same,CVE Average,"[2]; Run 2, 48 h, 0.1 μg/ml CDDP",0.801
same,CVE Average,"[2]; Run 2, 48 h, 1 μg/ml CDDP",0.311
same,CVE Average,"[2]; Run 2, 48 h, 10 μg/ml CDDP",0.205
same,CVE Average,"[2]; Run 2, 48 h, 100 μg/ml CDDP",0.287
same,CVE Average,"[2]; Run 2, 72 h, 0.1 μg/ml CDDP",1
same,CVE Average,"[2]; Run 2, 72 h, 1 μg/ml CDDP",0.337
same,CVE Average,"[2]; Run 2, 72 h, 10 μg/ml CDDP",0.127
same,CVE Average,"[2]; Run 2, 72 h, 100 μg/ml CDDP",0.268
same,CVE Average,"[2]; Run 3, 24 h, 0.1 μg/ml CDDP",0.675
same,CVE Average,"[2]; Run 3, 24 h, 1 μg/ml CDDP",0.194
same,CVE Average,"[2]; Run 3, 24 h, 10 μg/ml CDDP",0.398
same,CVE Average,"[2]; Run 3, 24 h, 100 μg/ml CDDP",0.224
same,CVE Average,"[2]; Run 3, 48 h, 0.1 μg/ml CDDP",0.624
same,CVE Average,"[2]; Run 3, 48 h, 1 μg/ml CDDP",0.815
same,CVE Average,"[2]; Run 3, 48 h, 10 μg/ml CDDP",0.199
same,CVE Average,"[2]; Run 3, 48 h, 100 μg/ml CDDP",0.185
same,CVE Average,"[2]; Run 3, 72 h, 0.1 μg/ml CDDP",0.759
same,CVE Average,"[2]; Run 3, 72 h, 1 μg/ml CDDP",0.295
same,CVE Average,"[2]; Run 3, 72 h, 10 μg/ml CDDP",0.155
same,CVE Average,"[2]; Run 3, 72 h, 100 μg/ml CDDP",0.393
